# Patent US20170035724A1, “MAMMALIAN SIRT1 ACTIVATOR” (priority 2015, published 2017)
# Assays:
# mammalian SIRT1 [1] = experiment: p53 deacetylation in A549 cells treated with corylin and nicotinamide, Western blotting; type: cell-based, human; settings: nicotinamide 1 hour before corylin, then UV, FIG. 6
# Protocol: Nicotinamide is a mammalian SIRT1 inhibitor (Exp Hematol. 2012; 40(4): 342-55), and the compound is used to confirm the foregoing result. After human lung cancer A549 cells were cultured at 37° C. overnight, the cells were treated with a media containing nicotinamide, and then cultured at 37° C. for 1 hour. Corylin in various concentrations was added to the media, and the cells were cultured at 37° C. for 4 hours. After which, the cells were emitted with UV to acetylate p53, and cultured at 37° C. for 4 hours again. Finally, the total protein in the cells were extracted and analyzed using Western blotting.
# sir2-mutant yeast cells = experiment: Replicative life span of sir2-mutant yeast cells (passage number); type: cell-based; settings: sir2-mutant yeast cells treated with corylin; untreated 9.8; FIG. 2
# Protocol: (§1) A yeast colony was selected and cultured in a YEPD culture media. When the OD value of the media was at 0.6-0.8, 20 μl of the media was added to a YEPD solid media, and then 20-30 yeast cells were selected using a tetrad dissection microscope manipulation system. The selected yeast cells were cultured at 30° C. for 3-5 hours to divide into first generation yeast cells. Afterwards, the first generation yeast cells were cultured at 30° C. for 3-5 hours to divide into second generation yeast cells. The culturing step was repeated until final generation yeast cells which cannot divide anymore existed. Finally, the yeast cells' passage number was counted according to the total division number.
# mammalian SIRT1 [2] = experiment: Mammalian SIRT1 expression in human osteosarcoma U2OS cells, Western blotting; type: cell-based; settings: increases with culturing period, FIG. 5A
# Protocol: Human osteosarcoma U2OS cells were seeded and cultured at 37° C. overnight, and then the cells were treated with corylin and cultured at 37° C. again. After various culturing periods, total protein in the treated cells was extracted and analyzed using Western blotting.
# PNC1 [3] = experiment: PNC1 transcription in corylin-treated yeast cells (PCR and real-time PCR); type: cell-based; settings: various treatment periods; increases with treatment period; FIGS. 4A and 4B
# Protocol: After yeast cells were treated with corylin for various periods, total RNA in the treated yeast cells was extracted. Then, the cDNA corresponding to the extracted RNA was formed using reverse transcription. Finally, the cDNA was analyzed using polymerase chain reaction and real-time polymerase chain reaction.
# p53 [4] = experiment: UV-induced p53 acetylation in human lung cancer A549 cells, Western blotting; type: cell-based; settings: corylin in various concentrations, 4 hours before UV, FIG. 5B
# Protocol: (§2) After human lung cancer A549 cells or human osteosarcoma U2OS cells were cultured at 37° C. overnight, the cells were treated with various substances, and then cultured at 37° C. for 4 hours. After that, the cells were emitted with UV to acetylate p53, and cultured at 37° C. for 4 hours again. Finally, total protein extracted from the cells was analyzed using Western blotting.
# wild type yeast cells = experiment: Replicative life span of wild type yeast cells (passage number); type: cell-based
# Protocol: as §1
# p53 [5] = experiment: UV-induced p53 acetylation in human osteosarcoma U2OS cells, Western blotting; type: cell-based; settings: corylin in various concentrations, 4 hours before UV, FIG. 5C
# Protocol: as §2
# PNC1 [6] = experiment: PNC1 translation (Pnc1 protein) in corylin-treated yeast cells, Western blotting; type: cell-based; settings: 50 μM corylin for 10 hours; compared with calorie restriction for 10 hours as positive control; FIG. 4C
# Protocol: To confirm the foregoing result, after yeast cells were treated with corylin in various concentrations for various periods, total protein therein was extracted and analyzed using Western blotting.
Compound,effect on p53 deacetylation caused by corylin (mammalian SIRT1 [1]),passage number (replicative life span) (sir2-mutant yeast cells),mammalian SIRT1 expression (mammalian SIRT1 [2]),PNC1 transcription (PNC1 [3]),acetylation of p53 induced by UV (p53 [4]),effective concentration on replicative life span of a yeast cell (wild type yeast cells; FIG. 3) [µM],"preferable effective concentration on replicative life span of a yeast cell (wild type yeast cells; FIG. 3, 'preferably') [µM]","passage number (replicative life span) (wild type yeast cells; wild type yeast cells treated with corylin, untreated 26.9, FIG. 2)",acetylation of p53 induced by UV (p53 [5]),Pnc1 expression (PNC1 translation) (PNC1 [6])
"NC(=O)c1cccnc1 [nicotinamide, Nicotinamide]",can inhibit the p53 deacetylation caused by corylin,,,,,,,,,
corylin,,10.6,can promote the expression of mammalian SIRT1,can promote the transcription of PNC1,can repress the acetylation of p53 induced by UV,2 to 100,2 to 15,33.2,can repress the acetylation of p53 induced by UV,can obviously express Pnc1
